Experimental data published in patent US20220403364A1, “BACTERIA IN 3D POROUS MEDIA” (The Trustees of Princeton University, priority 2019, published 2022).

What was measured:
[1] = tested on: bacteria; experiment: bacterial growth in the 3D porous medium with antibiotic (light absorbance at 600 nm); assay type: cell-based; conditions: porous media
Protocol: In some embodiments, changes in growth/motility due to changes in antibiotic or antibiotic concentrations can be quantified. […] Using an 0.81% gel with different concentrations of kanamycin ([…] (ref 504), 317.5 μg/ml (ref 503), 156.25 μg/ml (ref 502), and 78.125 μg/ml (ref 501)), it can be seen that for the two highest concentrations, there was no growth.
(§1) In both figures, different concentrations of ampicillin were tested 1 μg/ml (ref. 511, 521), 2 μg/ml (ref 512, 522), 3 μg/ml (ref 513, 523), 4 μg/ml (ref 514, 524) and 6 μg/ml (ref 515, 525). For FIG. 6B, the different concentrations were added to bacteria in liquid LB media with no shaking.
(§2) In FIGS. 6A-6C, the levels of bacteria were monitored by measuring light absorbance at 600 nm. In some embodiments, the cells or media is irradiated with light from a light source positioned above the cells, and a lens or sensor positioned below the cells then captures the light either being emitted from the cells (i.e., the intensity of light being emitted by a marker gene, etc.) or being transmitted through the cells (i.e., not being absorbed). A processor can then be used to quantify the measured light or sensor signals. Further a processor can also be used to convert the measured light or sensor signals into concentrations or bacterial cell counts, via, e.g., calibration curves. Based on that, various antibiotic performance characteristics can be determined—MIC, minimal bactericidal concentration (MBC), etc.

[2] = tested on: bacteria; experiment: bacterial growth in liquid LB media with no shaking, with antibiotic (light absorbance at 600 nm); assay type: cell-based
Protocol: as §1, §2

CC1(C)S[C@@H]2[C@H](NC(=O)[C@H](N)c3ccccc3)C(=O)N2[C@H]1C(=O)O [ampicillin]
bacterial growth ([1]; ampicillin 1 μg/ml, FIG. 6C ref 521): showed growth | bacterial growth ([1]; ampicillin 2 μg/ml, FIG. 6C ref 522): only the 1 μg/ml concentration showed growth | bacterial growth ([1]; ampicillin 3 μg/ml, FIG. 6C ref 523): only the 1 μg/ml concentration showed growth | bacterial growth ([1]; ampicillin 4 μg/ml, FIG. 6C ref 524): only the 1 μg/ml concentration showed growth | bacterial growth ([1]; ampicillin 6 μg/ml, FIG. 6C ref 525): only the 1 μg/ml concentration showed growth | bacterial growth ([2]; ampicillin 1 μg/ml, FIG. 6B ref 511): growth was detected | bacterial growth ([2]; ampicillin 2 μg/ml, FIG. 6B ref 512): growth was detected | bacterial growth ([2]; ampicillin 3 μg/ml, FIG. 6B ref 513): growth was detected | bacterial growth ([2]; ampicillin 4 μg/ml, FIG. 6B ref 514): no growth | bacterial growth ([2]; ampicillin 6 μg/ml, FIG. 6B ref 515): no growth
